In US6448252B1, “Treatment of equine protozoal myeloencephalitis” (IDEXX Pharmaceuticals, Inc., priority 1996, dated 2002):

Assays:
[1] = tested on: Plasmodium berghei yoelii; conditions: rodent malaria; cited from earlier work
[2] = horses, oral, 1 mg pyrimethamine/kg once a day for 10 days; cited from earlier work
Sarcocystis neurona = conditions: EPM in equines; sulfadiazine as the sulfonamide given with pyrimethamine
Description: The amounts of each component are based on a liquid suspension having a total volume of about 1 liter. As mentioned above, a useful dosage, e.g., for a 1,000 pound horse infected with Sarcocystis neurona (as evidenced by the presence of the protozoan in a sample from the subject's cerebrospinal fluid) is about 30 mL of the suspension, once a day, given on an empty stomach in the morning.

| SMILES | causal prophylactic activity [1] | toxicological problem [2] | rate of efficacy (Sarcocystis neurona) |
| --- | --- | --- | --- |
| COc1cc(NC(C)CCCN)c2ncccc2c1 (stereo not shown) [Primaquine diphosphate] | causal prophylactic activity |  |  |
| CCc1nc(N)nc(N)c1-c1ccc(Cl)cc1 [pyrimethamine] |  | does not present a serious toxicological problem |  |
| Nc1ccc(S(=O)(=O)Nc2ncccn2)cc1 [sulfadiazine] | causal prophylactic activity |  | > 70% |
